These results are taken from paper PMC12371487, “Phenylalkyl Acetophenones and Anacardic Acids from Knema oblongifolia with Synthetic Analogues as Anti-infectives and Antibacterial Agents” (ACS Bio & Med Chem Au, 2025).

Experiment [1] relates to Dictyostelium discoideum (Dd) in infection. The experiment is described as follows: Dd-Mm infection assay: host amoeba growth (fluorescence). Format: cell-based. To be noted: infected Dd, fluorescence AUC over 72 h at 25 °C, 6-concentration curve, top 100 μM, 1:3 steps, IC50 interpolated; for IC50: Dictyostelium discoideum. The method, then:
(§1) Plant extracts, fractions, or isolated compounds were stored at −20 °C and wrapped in aluminum foil if necessary. All manipulations with extracts, fractions, or compounds were performed under a sterile hood. Extracts, fractions, and compounds were resuspended throughout in DMSO to best solubilize extracts with diverse constituents. Extracts, fractions, or compounds were added to the assay plate in a 1:100 dilution. Assay solutions of extracts, fractions, and compounds were prepared in 96-well plates, stored at −20 °C, and thawed before the experiment at room temperature or warmer with or without shaking/vortexing to obtain a clear assay solution. Extracts were tested at 25 μg/mL and purified compounds in a dose–response curve of 6 concentrations with 100 μM being the top concentration and a 1:3 dilution step between each testing concentration. Since fractions were not weighed individually, the injection mass was used to calculate an average mass per fraction and thus a nominal mass concentration. Fractions were tested at a nominal concentration of 10 μg/mL.
(§2) As described in Nitschke et al. and Mottet et al., Dd Ax2(ka) expressing mCherry from the act5 chromosomal locus was infected with Mm M strain expressing the lux operon (luxCDABE) , by spinoculation.
(§3) Briefly, the day before the experiment, Mm was cultivated in 7H9 broth (Becton Dickinson, Difco Middlebrook 7H9) supplemented with 10% OADC (Becton Dickinson) and 0.05% tyloxapol (Sigma-Aldrich) and 50 μg/mL kanamycin at 32 °C overnight with continuous shaking. Additionally, the day before the experiment, 10^7 amoebae were plated in HL5-C in a 10 cm Petri dish (Falcon). On the day of the experiment, a volume of the Mm culture corresponding to a multiplicity of infection of 25 with respect to the number of amoebae in the Petri dish was added to the semiconfluent amoebae monolayer. Subsequently, the Petri dishes were centrifuged twice at 500g, as described in Mottet et al. To remove extracellular bacteria, dishes were rinsed with fresh HL5-C, and the infected cell population was resuspended in HL5-C with 5 U/mL penicillin and 5 μg/mL streptomycin (Gibco) to inhibit the extracellular growth of bacteria during the course of the experiment.
(§4) For testing fractions and purified compounds, 20 μL of infected cell suspension was plated into each well of a 384-well plate (Interchim FP-BA8240) to an effective cell number of 1 × 10^4 cells per well. Fractions or compounds including a vehicle control (0.3% DMSO final concentration) and a positive control (rifabutin, 10 μM final concentration) were added using an electronic multipipette (Sartorius). Subsequently, the well plates were sealed with a gas impermeable membrane (H769.1, Carl Roth), briefly centrifuged, and intracellular bacterial growth was monitored using an Agilent BioTek H1 plate reader and an Agilent BioTek BioStack plate stacker by recording luminescence over 72 h at 25 °C with readings taken every hour. Fluorescence was also recorded to monitor amoeba growth.
(§5) For both assays, growth curves were obtained by measuring the luminescence and fluorescence as a proxy for bacterial growth and host growth, respectively, for 72 h with time-points taken every hour. The “normalized residual growth” was computed by calculating the area under the curve (AUC, trapezoid method) and normalizing it to the vehicle control (0.3% DMSO, set at 1) and a baseline curve (set at 0). The baseline curve was calculated by taking the median of the first measurement of all wells in a plate and extrapolating it over the complete time course. The threshold for hit detection was arbitrarily fixed at a cutoff of normalized residual growth ≤0.5. Normalized values were averaged over technical and biological replicates (all experiments on isolated compounds have at least n = 3 and N = 3, whereas the primary extract screening and microfractions testing had values of n = 1 and N = 3). […]

Experiment [2] concerns Mycobacterium marinum (Mm) in infection of Dictyostelium discoideum. The experiment can be described thus: Dd-Mm infection assay: intracellular Mm growth (luminescence). Format: cell-based. Particulars: for IC50: Mm inside Dd, luminescence AUC over 72 h at 25 °C, 6-concentration curve, top 100 μM, 1:3 steps, IC50 interpolated. The procedure:
as §1, §2, §3, §4, §5

Experiment [3] has as its system Mycobacterium marinum (Mm) in broth. The experiment is described as follows: Mm growth in broth (antibiotic assay, luminescence). Format: cell-based. Particulars: 72 h; for IC50 on Mm in broth: Mm in 7H9 broth, luminescence at 32 °C, IC50 interpolated; for IC50: Mycobacterium marinum, read-out: IC50 on Mm in broth. The procedure:
as §1, with “Extracts, fractions, and compounds were resuspended throughout in DMSO to best solubilize extracts with diverse constituents.” left out
For testing bacteria in broth, the preculture was diluted to a bacterial density of 3.75 × 10^5 bacteria per mL in 7H9 medium. Plating bacteria and compounds or fractions was performed analogously to the infection assay described above. Bacteria growth was monitored with the Agilent BioTek H1 plate reader by recording luminescence at 32 °C.
For both assays, growth curves were obtained by measuring the luminescence and fluorescence as a proxy for bacterial growth and host growth, respectively, for 72 h with time-points taken every hour. The “normalized residual growth” was computed by calculating the area under the curve (AUC, trapezoid method) and normalizing it to the vehicle control (0.3% DMSO, set at 1) and a baseline curve (set at 0). The baseline curve was calculated by taking the median of the first measurement of all wells in a plate and extrapolating it over the complete time course. The threshold for hit detection was arbitrarily fixed at a cutoff of normalized residual growth ≤0.5.
This procedure was also applied to screening extracts with slight modifications. The day before the experiment we preplated 10 μL of HL5-C using a dispenser (Thermo Multidrop), subsequently we preplated 2.2 μL of dissolved extracts from 96-well plates into quadrants 1, 2, and 3 of 384-well plates, whereas quadrant 4 was used for positive and vehicle controls. Preplating of extracts was performed using a liquid handler (Agilent Bravo). In total, 24 extract plates were distributed in triplicate into […] 384-well plates, amounting to 24 assay plates. The prepared plates were sealed and stored at 4 °C overnight. On the day of the experiment, nine 10 cm Petri dishes were infected (as described before) and grouped into three pools. The cell suspension was adjusted to 10^6 cells/mL, and 10 μL was plated into the 24 assay plates, resulting in 10^4 cells per well, as used for conventional infection experiments. Plates were sealed and placed in the plate stacker that supplied the plate reader. The same procedure was used to screen the same extracts on Mm in a broth. For both assays, the first time points and a time point after 72 h were recorded. Subsequently, we normalized the end point, first with the median of the full assay plate at the first time point and second with the end point of the vehicle controls in the respective assay plate.
For IC50 estimation, we used a rudimentary approach of interpolating the sample concentration between the two normalized residual growth values, which were closest to a value of 0.5.

The test system of experiment [4] is Staphylococcus aureus (Sa) Newman strain. The experiment is described as follows: MIC determination in Mueller-Hinton broth (CLSI) on Sa. Format: cell-based. To be noted: Mueller-Hinton broth, CLSI; for MIC: Staphylococcus aureus, NEWMAN, read-out: MIC on Sa. The method, then:
MICs were determined in Mueller–Hinton (MH) broth according to CLSI guidelines and were repeated at least on three different occasions.
The Newman strain ofS. aureus and the UCBPP-PA14 strain ofP. aeruginosa were used in this study.

The test system is the same in experiment [5]. To be noted: literature report; reference number not shown in text; cited from earlier work.

Converted amounts (≈) assume the structure as drawn.

For the compound `O=C(O)c1c(O)cccc1CCCCCCCCc1ccccc1` [Compound 10, Khookerianic acid C/Kneglobularic acid A], the IC50 in experiment [1] and in experiment [2] was 2.47 µM throughout. Besides, the “IC50 on Mm in broth” value in experiment [3] was “Not active”. For the same compound, in experiment [4], the MIC stood at 8 µg/mL (≈ 24.5 µM).

Take `CCCCCCCCCCCc1cccc(O)c1C(=O)O` [Compound 11, Anagigantic acid]: the IC50 in experiment [1] and in experiment [2] was 2.47 µM each time. In addition, the “IC50 on Mm in broth” value in experiment [3] is recorded as “Not active”. For the same compound, in experiment [4], the MIC amounted to 8 µg/mL (≈ 27.4 µM).

As to `CCCCCCCCCCCCCc1cccc(O)c1C(=O)O` [Compound 12, 6-Tridecylsalicylic acid], the IC50 in experiment [1] and in experiment [2] was 66.7 µM throughout. Moreover, the “IC50 on Mm in broth” value in experiment [3] is reported as “Not active”. In addition, the “MIC on Sa” value in experiment [4] was “Not active”.

Take `CC(=O)c1ccc(O)cc1O` [Compound 13, 2,4-Dihydroxyacetophenone]: in experiment [1], the “IC50 on Dd in infection” value was “not active”. In addition, in experiment [2], the IC50 is 66.7 µM. Besides, in experiment [3], the “IC50 on Mm in broth” value is listed as “not active”. Further, in experiment [4], the “MIC on Sa” value is “not active”.

In the case of `CC(=O)c1ccc(O)c(Cl)c1O` [Compound 15, 3-Chloro-2,4-dihydroxyacetophenone], the IC50 in experiment [1] and in experiment [2] was 22.2 µM throughout. Besides, in experiment [3], the “IC50 on Mm in broth” value is “not active”. In addition, in experiment [4], the “MIC on Sa” value is recorded as “not active”.

In the case of `CC(=O)c1cc(Cl)c(O)cc1O` [Compound 16, 5-Chloro-2,4-dihydroxyacetophenone], the IC50 in experiment [1] and in experiment [2] was 22.2 µM in each case. Also, the “IC50 on Mm in broth” value in experiment [3] is on record as “not active”. In experiment [4], the “MIC on Sa” value is given as “not active”.

Regarding `CC(=O)c1cc(Cl)c(O)c(Cl)c1O` [Compound 17, 3,5-Dichloro-2,4-dihydroxyacetophenone], the IC50 in experiment [1] and in experiment [2] was 66.7 µM in each case. The “IC50 on Mm in broth” value in experiment [3] is recorded as “not active”. Moreover, the “MIC on Sa” value in experiment [4] was “not active”.

For the compound `CC(=O)c1ccc(O)c(Br)c1O` [Compound 18, 3-Bromo-2,4-dihydroxyacetophenone], the IC50 in experiment [1] and in experiment [2] was 66.7 µM throughout. In addition, in experiment [3], the “IC50 on Mm in broth” value was “not active”. The “MIC on Sa” value in experiment [4] was “not active”.

Take `CC(=O)c1cc(Br)c(O)cc1O` [Compound 19, 5-Bromo-2,4-dihydroxyacetophenone]: the half-maximal inhibitory concentration (IC50) in experiment [1] was determined as 22.2 µM; in experiment [2], 66.7 µM. Further, the “IC50 on Mm in broth” value in experiment [3] is “not active”. Further, the “MIC on Sa” value in experiment [4] is reported as “not active”.

Turning to `CC(=O)c1cc(Br)c(O)c(Br)c1O` [Compound 20, 3,5-Dibromo-2,4-dihydroxyacetophenone], the IC50 in experiment [1] and in experiment [2] was 66.7 µM in each case. In addition, the “IC50 on Mm in broth” value in experiment [3] is recorded as “not active”. Besides, in experiment [4], the “MIC on Sa” value is given as “not active”.

As to `O=C(/C=C/c1cccc2ccccc12)c1cc(Cl)c(O)cc1O` [Compound 26, (E)-1-(5-Chloro-2,4-dihydroxyphenyl)-3-(naphthalen-1-yl)prop-2-en-1-one], the IC50 in experiment [1] was 1.47 µM; in experiment [2] it was 0.59 µM; in experiment [3], 47.6 µM. Further, the “MIC on Sa” value in experiment [4] was “not active”.

Compound `O=C(/C=C/c1c2ccccc2cc2ccccc12)c1cc(Cl)c(O)cc1O` [Compound 27, (E)-3-(Anthracen-9-yl)-1-(5-chloro-2,4-dihydroxyphenyl)prop-2-en-1-one] had an IC50 in experiment [1] of 15.9 µM. The IC50 in experiment [2] is 0.59 µM. Further, in experiment [2] (ratio of IC50 against Dd growth to IC50 on intracellular Mm), the “specificity window (IC50 on Dd vs IC50 on intracellular Mm)” value is listed as 25 fold. For the same compound, in experiment [3], the “IC50 on Mm in broth” value was “not active”. For the same compound, in experiment [4], the “MIC on Sa” value amounted to 2 mg·L–1 and the MIC came to 2 µg/mL (≈ 5.34 µM).

As for `CC(=O)c1c(O)cc(O)c(Cl)c1CCCCCCc1ccccc1` [Compound 28, 1-(3-Chloro-4,6-dihydroxy-2-(6-phenylhexyl)phenyl)ethan-1-one], the results for the IC50 in experiment [1], in experiment [2] and in experiment [3] were 0.82 µM, 2.47 µM and 22.2 µM, respectively. Further, the MIC in experiment [4] was 4 µg/mL (≈ 11.5 µM).

With `CC(=O)c1c(O)c(Cl)c(O)c(Cl)c1CCCCCCc1ccccc1` [Compound 29, 1-(3,5-Dichloro-2,4-dihydroxy-6-(6-phenylhexyl)phenyl)ethan-1-one], the IC50 in experiment [1] turned out to be 7.41 µM; in experiment [2] it was 2.47 µM. Moreover, the “IC50 on Mm in broth” value in experiment [3] is “not active”. Besides, the MIC in experiment [4] was 4 to 8 µg/mL (≈ 10.5 to 21 µM).

With `CCCCCCCCCCCCCCCc1cccc(O)c1C(=O)O` [anacardic acid], the “IC50 on Dd in infection” value in experiment [1] was “not active”. Further, the IC50 in experiment [2] was found to be 22.2 µM. The “IC50 on Mm in broth” value in experiment [3] is given as “not active”. Also, the “MIC on Sa” value is listed as 16 mg·L–1 in experiment [4] and 16 μg·mL^–1 in experiment [4] (listed as Anacardic acid). The “active dose against Sa (already reported)” value in experiment [5] is 25 μg mL^–1.
